Data on 22 compounds can be found in patent publication US20260365682A1, “MODULATORS OF TNF-ALPHA ACTIVITY” (Forward Therapeutics, Inc., priority 2022, published 2026).

Read-outs that look alike come from different tables or passages of the source.

The assay deals with T1, TNF-α (Homo sapiens, UniProt P01375).
T1 construct: purchased R&D 210-TA-020/CF
The assay can be described thus: TNF-α Induced HEK Blue Cellular Assay (secreted alkaline phosphatase expression, QUANTI-Blue). Particulars: HEK Blue TNFα reporter cells, TNF-α 100 μg/ml, 24 hrs at 37° C., inhibition of secreted alkaline phosphatase. Format: cell-based. The gist of the method: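 Compound was serially diluted from […] to 0.5 nM final, then incubated with 10,000 HEK Blue TNFα reporter cells per well and […] TNF-α for 24 h at 37° C. SEAP output was read by QUANTI-Blue absorbance at 620 nm. Inhibition was background-corrected against DMSO controls with and without stimulation, and IC50 was fitted with a 4-parameter logistic equation.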

T1 sequence (P01375 77-233 limits assumed): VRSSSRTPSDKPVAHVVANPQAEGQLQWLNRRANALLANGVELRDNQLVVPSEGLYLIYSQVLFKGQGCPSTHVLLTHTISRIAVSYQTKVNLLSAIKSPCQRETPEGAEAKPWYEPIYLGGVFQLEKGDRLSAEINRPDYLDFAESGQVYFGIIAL

On to `[2H]C([2H])([2H])N1C(=O)c2cccc(OC(F)F)c2[C@H]2C[C@@H]1c1nc3ccc(C#CC4CCCN(C(=O)C5CC5)C4)cc3n12` (stereo partly drawn) [Example 184, (7R,14R)-11-((1-(cyclopropanecarbonyl)piperidin-3-yl)ethynyl)-1-(difluoromethoxy)-6-(methyl-d3)-6,7-dihydro-7,14-methanobenzo[f]benzo[4,5]imidazo[1,2-a][1,4]diazocin-5(14H)-one], for which the half-inhibitory concentration (IC50) (read-out: IC50 value) was under 100 nM.
`[2H]C([2H])([2H])N1C(=O)c2cccc(OC(F)F)c2[C@H]2C[C@@H]1c1nc3ccc(C#CC4(C)CCN(C(=O)C5CC5)C4)cc3n12` (stereo partly drawn) [Example 189, (7R,14R)-11-((1-(cyclopropanecarbonyl)-3-methylpyrrolidin-3-yl)ethynyl)-1-(difluoromethoxy)-6-(methyl-d3)-6,7-dihydro-7,14-methanobenzo[f]benzo[4,5]imidazo[1,2-a][1,4]diazocin-5(14H)-one]: the IC50 (read-out: IC50 value) was in the range of 10000 to 30000 nM.
Same read-out and setting: under `[2H]C([2H])([2H])N1C(=O)c2cccc(OC(F)F)c2[C@H]2C[C@@H]1c1nc3ccc(C#CC4CNC4)cc3n12` [Example 69, (7R,14R)-11-(azetidin-3-ylethynyl)-1-(difluoromethoxy)-6-(methyl-d3)-6,7-dihydro-7,14-methanobenzo[f]benzo[4,5]imidazo[1,2-a][1,4]diazocin-5(14H)-one] stands 100 to 1000 nM; under `[2H]C([2H])([2H])N1C(=O)c2cccc(OC(F)F)c2[C@H]2C[C@@H]1c1nc3ccc(C#CCC4CC4)cc3n12` [Example 105, (7R,14R)-11-(3-cyclopropylprop-1-yn-1-yl)-1-(difluoromethoxy)-6-(methyl-d3)-6,7-dihydro-7,14-methanobenzo[f]benzo[4,5]imidazo[1,2-a][1,4]diazocin-5(14H)-one], under 100 nM; under `[2H]C([2H])([2H])N1C(=O)c2cccc(OC(F)F)c2[C@H]2C[C@@H]1c1nc3ccc(C#CCOC(F)F)cc3n12` [Example 131, (7R,14R)-1-(difluoromethoxy)-11-(3-(difluoromethoxy)prop-1-yn-1-yl)-6-(methyl-d3)-6,7-dihydro-7,14-methanobenzo[f]benzo[4,5]imidazo[1,2-a][1,4]diazocin-5(14H)-one], under 100 nM.
The same measure, in the same setting: under `[2H]C([2H])([2H])N1C(=O)c2cccc(OC(F)F)c2[C@H]2C[C@@H]1c1nc3ccc(C#Cc4cnc(C)nc4)cc3n12` [Example 21, (7R,14R)-1-(difluoromethoxy)-6-(methyl-d3)-11-((2-methylpyrimidin-5-yl)ethynyl)-6,7-dihydro-7,14-methanobenzo[f]benzo[4,5]imidazo[1,2-a][1,4]diazocin-5(14H)-one] stands under 100 nM; under `[2H]C([2H])([2H])N1C(=O)c2cccc(OC(F)F)c2[C@H]2C[C@@H]1c1nc3ccc(C#CC(C)CN4CC(F)C4)cc3n12` (stereo partly drawn) [Example 248, (7R,14R)-1-(difluoromethoxy)-11-(4-(3-fluoroazetidin-1-yl)-3-methylbut-1-yn-1-yl)-6-(methyl-d3)-6,7-dihydro-7,14-methanobenzo[f]benzo[4,5]imidazo[1,2-a][1,4]diazocin-5(14H)-one], 100 to 1000 nM; under `[2H]C([2H])([2H])N1C(=O)c2cccc(OC(F)F)c2[C@H]2C[C@@H]1c1nc3ccc(C#CC4(C)COC4)cc3n12` [Example 96, (7R,14R)-1-(difluoromethoxy)-6-(methyl-d3)-11-((3-methyloxetan-3-yl)ethynyl)-6,7-dihydro-7,14-methanobenzo[f]benzo[4,5]imidazo[1,2-a][1,4]diazocin-5(14H)-one], under 100 nM.
Still for that read-out and setting: for `Cn1cc(C#Cc2ccc3nc4n(c3c2)[C@@H]2C[C@H]4NC(=O)c3cccc(OC(F)F)c32)cn1` [Example 2, (1R,11R)-18-(difluoromethoxy)-5-[2-(1-methylpyrazol-4-yl)ethynyl]-2,9,12-triazapentacyclo[9.8.1.0^∧{2,10}.0^∧{3,8}. 0^∧{14,19}]icosa-3(8),4,6,9,14(19),15,17-heptaen-13-one] the value was under 100 nM.
Take `[2H]C([2H])([2H])N1C(=O)c2cccc(OC(F)F)c2[C@H]2C[C@@H]1c1nc3ccc(C#CC4CCN(S(C)(=O)=O)CC4)cc3n12` [Example 185, (7R,14R)-1-(difluoromethoxy)-6-(methyl-d3)-11-((1-(methylsulfonyl)piperidin-4-yl)ethynyl)-6,7-dihydro-7,14-methanobenzo[f]benzo[4,5]imidazo[1,2-a][1,4]diazocin-5(14H)-one]: where the note is “read-out: IC50 value”, the concentration for half-maximal inhibition (IC50) was under 100 nM.
Same read-out and setting: under `[2H]C([2H])([2H])N1C(=O)c2cccc(OC(F)F)c2[C@H]2C[C@@H]1c1nc3ccc(C#Cc4cnn(CCO)c4)cc3n12` [Example 10, (7R,14R)-1-(difluoromethoxy)-11-((1-(2-hydroxyethyl)-1H-pyrazol-4-yl)ethynyl)-6-(methyl-d3)-6,7-dihydro-7,14-methanobenzo[f]benzo[4,5]imidazo[1,2-a][1,4]diazocin-5(14H)-one] stands under 100 nM.
`[2H]C([2H])([2H])N1C(=O)c2cccc(OC(F)F)c2[C@H]2C[C@@H]1c1nc3ccc(C#CCOC4CCC4)cc3n12` [Example 176, (7R,14R)-11-(3-cyclobutoxyprop-1-yn-1-yl)-1-(difluoromethoxy)-6-(methyl-d3)-6,7-dihydro-7,14-methanobenzo[f]benzo[4,5]imidazo[1,2-a][1,4]diazocin-5(14H)-one] yielded a 50% inhibitory concentration (IC50) (IC50 value) of 100 to 1000 nM.
For the compound `[2H]C([2H])([2H])N1C(=O)c2cccc(OC(F)F)c2[C@H]2C[C@@H]1c1nc3ccc(C#CCCCNC)cc3n12` [Example 153, (7R,14R)-1-(difluoromethoxy)-6-(methyl-d3)-11-(5-(methylamino)pent-1-yn-1-yl)-6,7-dihydro-7,14-methanobenzo[f]benzo[4,5]imidazo[1,2-a][1,4]diazocin-5(14H)-one], the IC50 (read-out: IC50 value) is 100 to 1000 nM.
For `[2H]C([2H])([2H])N1C(=O)c2cccc(OC(F)F)c2[C@H]2C[C@@H]1c1nc3ccc(C#CC4(C)CCN(C(=O)C(C)(C)C)C4)cc3n12` (stereo partly drawn) [Example 190, (7R,14R)-1-(difluoromethoxy)-6-(methyl-d3)-11-((3-methyl-1-pivaloylpyrrolidin-3-yl)ethynyl)-6,7-dihydro-7,14-methanobenzo[f]benzo[4,5]imidazo[1,2-a][1,4]diazocin-5(14H)-one], where the note is “read-out: IC50 value”, the IC50 was in the range of 100 to 1000 nM.
The same measure, in the same setting: under `[2H]C([2H])([2H])N1C(=O)c2cccc(OC(F)F)c2[C@H]2C[C@@H]1c1nc3ccc(C#Cc4cnoc4)cc3n12` [Example 41, (7R,14R)-1-(difluoromethoxy)-11-(isoxazol-4-ylethynyl)-6-(methyl-d3)-6,7-dihydro-7,14-methanobenzo[f]benzo[4,5]imidazo[1,2-a][1,4]diazocin-5(14H)-one] stands under 100 nM; under `[2H]C([2H])([2H])N1C(=O)c2cccc(OC(F)F)c2[C@H]2C[C@@H]1c1nc3ccc(C#CCCCO)cc3n12` [Example 83, (7R,14R)-1-(difluoromethoxy)-11-(5-hydroxypent-1-yn-1-yl)-6-(methyl-d3)-6,7-dihydro-7,14-methanobenzo[f]benzo[4,5]imidazo[1,2-a][1,4]diazocin-5(14H)-one], under 100 nM.
Consider `[2H]C([2H])([2H])N1C(=O)c2cccc(OC(F)F)c2[C@H]2C[C@@H]1c1nc3ccc(C#CCCN)cc3n12` [Example 123, (7R,14R)-11-(4-aminobut-1-yn-1-yl)-1-(difluoromethoxy)-6-(methyl-d3)-6,7-dihydro-7,14-methanobenzo[f]benzo[4,5]imidazo[1,2-a][1,4]diazocin-5(14H)-one], for which the half-maximal inhibitory concentration (IC50) (read-out: IC50 value) was in the range of 100 to 1000 nM.
On the same count and under the same terms, for `CN1C(=O)c2cccc(OC(F)F)c2[C@H]2C[C@@H]1c1nc3ccc(C#Cc4cncnc4)cc3n12` [Example 4, (1R,11R)-18-(difluoromethoxy)-12-methyl-5-[2-(pyrimidin-5-yl)ethynyl]-2,9,12-triazapentacyclo[9.8.1.0^{2,10}.0^{3,8}.0^{14,19}]icosa-3(8),4,6,9,14(19),15,17-heptaen-13-one] the value was under 100 nM.
In the case of `[2H]C([2H])([2H])N1C(=O)c2cccc(OC(F)F)c2[C@H]2C[C@@H]1c1nc3ccc(C#CCCNC(=O)C(C)(C)C)cc3n12` [Example 215, N-(4-((7R,14R)-1-(difluoromethoxy)-6-(methyl-d3)-5-oxo-5,6,7,14-tetrahydro-7,14-methanobenzo[f]benzo[4,5]imidazo[1,2-a][1,4]diazocin-11-yl)but-3-yn-1-yl)pivalamide], the IC50 (read-out: IC50 value) was 10000 to 30000 nM.
The same measure, in the same setting: for `[2H]C([2H])([2H])N1C(=O)c2cccc(OC(F)F)c2[C@H]2C[C@@H]1c1nc3ccc(C#CCCN4CC(C)(C#N)C4)cc3n12` [Example 154, 1-(4-((7R,14R)-1-(difluoromethoxy)-6-(methyl-d3)-5-oxo-5,6,7,14-tetrahydro-7,14-methanobenzo[f]benzo[4,5]imidazo[1,2-a][1,4]diazocin-11-yl)but-3-yn-1-yl)-3-methylazetidine-3-carbonitrile] the value was under 100 nM.
On the same count and under the same terms, for `[2H]C([2H])([2H])N1C(=O)c2cccc(OC(F)F)c2[C@H]2C[C@@H]1c1nc3c(F)cc(C#CC)cc3n12` [Example 109, (7R,14R)-1-(difluoromethoxy)-9-fluoro-6-(methyl-d3)-11-(prop-1-yn-1-yl)-6,7-dihydro-7,14-methanobenzo[f]benzo[4,5]imidazo[1,2-a][1,4]diazocin-5(14H)-one] the value was 100 to 1000 nM.
Still for that read-out and setting: under `[2H]C([2H])([2H])N1C(=O)c2cccc(OC(F)F)c2[C@H]2C[C@@H]1c1nc3ccc(C#CCOC(C)C)cc3n12` [Example 74, (7R,14R)-1-(difluoromethoxy)-11-(3-isopropoxyprop-1-yn-1-yl)-6-(methyl-d3)-6,7-dihydro-7,14-methanobenzo[f]benzo[4,5]imidazo[1,2-a][1,4]diazocin-5(14H)-one] stands under 100 nM.
